From US12310975B2, “Modulators of BCL6 proteolysis and associated methods of use” (Arvinas Operations, Inc., priority 2019, dated 2025) come the findings set out here.

As a reminder, the IC50 is the midpoint of a concentration-inhibition curve. In general, Dmax refers to the largest share of the target that was removed. Low values mean a partial loss of target, high ones a fuller loss of target. Broadly, the EC50 is the concentration giving half of the maximal effect. A lower EC50 goes with a more potent agent.

For assay [1], the target named is T1, BCL6 (Homo sapiens (Human), UniProt P41182). As to the kind of experiment: BCL6 TR-FRET assay (BCL6-Avitag-Biotin / BCoR-Cy5 peptide). Format: binding. As to the method:
Protein Synthesis. BCL6 protein was expressed by transforming Invitrogen One Shot cells with GS63525 pET24a-His-SUMO-TEV-BCLm-Avitag plasmid following manufacturer's instructions. In addition, biotin at a final concentration of 50 μM, and IPTG at a final concentration of 1 mM was added to the culture and incubated at room temperature shaking overnight.
Assay buffer A: 50 mM HEPES pH 7.5, 125 mM NaCl, 0.01% TritonX.
Assay buffer B (made fresh): buffer A+1 mM Glutathione (or 0.5 mM DTT).
Assay buffer C (made fresh): buffer B+0.03% BSA.
Black Proxy plates, 96 well.
15 μl final reaction volumes (BCoR-Cy5 100 nM, SA-Eu 2 nM, BCL6-avitag 2 nM).
[…] BCL6-Avitag-Biotin stock: made fresh by adding 2 μl of BCL6-Avitag-Biotin to 31.5 ml Buffer C.
1 mM BCoR-Cy5 peptide (LifeTein) stock in Dimethylformamide (DMF).
300 nM BCoR-Cy5 working stock: made fresh by adding 4.5 μl of the 1 mM BCoR-Cy5 peptide stock to 15 ml Buffer B.
10 μM Eu-Streptavidin (Lance Eu-W1024 Streptavidin, PerkinElmer) stock solution.
6 nM Eu-Streptavidin working stock: made fresh by adding 9 μl Eu-Streptavidin stock solution to 15 ml Buffer A.
Compounds were diluted to 10 mM. Twenty microliters of DMSO was aliquoted to each well of the microtiter plates. From the 10 mM compound stock, 8.7 ul was aliquoted to the 20 ul DMSO and 3-fold serial dilutions (12 pt 3-0.01 uM tritration plate, 96 well, 100% DMSO) performed. Five ul from the titration plate wells was aliquoted to 45 ul Buff C (Intermediate dilution plates, 10% DMSO).
Spot 1.5 μl compound titrations to 384-well plates in duplicate, and spot 3.5 μl [8.5 nM] BCL6-bio protein to each well. The plate was mix briefly, centrifuged, and incubated for 30 minutes at room temperature.
Mix 14 mls of BCoR-Cy5 [300 nM] and 14 mls [6 nM] Eu-Streptavidin. Spot 10 μl BCoR-Cy5/SA-Eu (1:1) mix to each well. The plates were incubated for 2 hours and then read on an Envision plate reader.
In general terms: Time-resolved FRET reads energy transfer from a long-lived donor to a nearby acceptor.

Assay [2] addresses T1, BCL6. As to the kind of experiment: Immunofluorescence high content imaging of BCL6 degradation in T47D cells. It is filed as cell-based. To be noted: for Dmax: T47D. The essentials:
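T47D cells were treated 3 days at 37 °C with an 11-point 3-fold dilution series (top 0.1 or 1 μM), then fixed, permeabilized and immunostained for BCL6 with Alexa-488 secondary, CellMask and Hoechst. BCL6 signal was imaged at 10×, 4 fields/well, with top-hat smoothing.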

Consider `CNC(=O)COc1cc2cc(Nc3nc(N4CCC(CN5CCC6(C5)CN(c5ccc7c(c5)C(=O)N(C5CCC(=O)NC5=O)C7=O)C6)CC4)ncc3Cl)ccc2n(C(C)C)c1=O` (centres unmarked) [compound 510, 2-{[6-({5-chloro-2-[4-({2-[2-(2,6-dioxopiperidin-3-yl)-1,3-dioxo-2,3-dihydro-1H-isoindol-5-yl]-2,6-diazaspiro[3.4]octan-6-yl}methyl)piperidin-1-yl]pyrimidin-4-yl}amino)-2-oxo-1-(propan-2-yl)-1,2-dihydroquinolin-3-yl]oxy}-N-methylacetamide], for which the half-inhibitory concentration (IC50) on BCL6 [1] (read-out: IC50) was less than 10 nM. The compound further registered a Dmax at BCL6 [2] of 50 to 70%.

With `CC(=O)COc1cc2cc(Nc3nc(N4CCN(C5CCN(CCCOc6ccc7c(c6)CN(C6CCC(=O)NC6=O)C7=O)C5)CC4)ncc3Cl)ccc2n(C)c1=O` (centres unmarked) [compound 158, 3-(5-(3-(3-(4-(5-chloro-4-((1-methyl-2-oxo-3-(2-oxopropoxy)-1,2-dihydroquinolin-6-yl)amino)pyrimidin-2-yl)piperazin-1-yl)pyrrolidin-1-yl)propoxy)-1-oxoisoindolin-2-yl)piperidine-2,6-dione], the IC50 at BCL6 [1] (class symbols A-D, read-out: IC50 (nM)***) was less than 10 nM. In addition, the Dmax at BCL6 [2] (maximum, class symbols A-C) is less than 50%. Besides, the DC50 on BCL6 [2] (class symbols A-D, read-out: EC50 (nM)*) was in the range of 10 to 50 nM.

For `CNC(=O)COc1cc2cc(Nc3nc(N4CCC(CN5CC(N6CCC(c7ccc8c(c7)C(=O)N(C7CCC(=O)NC7=O)C8=O)CC6)C5)CC4)ncc3Cl)ccc2n(C(C)C)c1=O` (centres unmarked) [compound 538, 2-({6-[(5-chloro-2-{4-[(3-{4-[2-(2,6-dioxopiperidin-3-yl)-1,3-dioxo-2,3-dihydro-1H-isoindol-5-yl]piperidin-1-yl}azetidin-1-yl)methyl]piperidin-1-yl}pyrimidin-4-yl)amino]-2-oxo-1-(propan-2-yl)-1,2-dihydroquinolin-3-yl}oxy)-N-methylacetamide], the half-inhibitory concentration (IC50) on BCL6 [1] (read-out: IC50) is less than 10 nM. The compound also yielded a Dmax on BCL6 [2] not below 70%.

`CNC(=O)COc1cc2cc(Nc3nc(N4CCC(CN5CCC(c6cc(OC)cc(C(=O)NC7CCC(=O)NC7=O)c6F)CC5)CC4)ncc3Cl)ccc2n(C)c1=O` (centres unmarked) [compound 467, 3-[1-({1-[5-chloro-4-({1-methyl-3-[(methylcarbamoyl)methoxy]-2-oxo-1,2-dihydroquinolin-6-yl}amino)pyrimidin-2-yl]piperidin-4-yl}methyl)piperidin-4-yl]-N-(2,6-dioxopiperidin-3-yl)-2-fluoro-5-methoxybenzamide]: the IC50 on BCL6 [1] (read-out: IC50) fell in the range of 10 to 50 nM. Further, at BCL6 [2], the Dmax is less than 50%.

The compound `Cn1c(=O)c(-c2cnoc2)cc2cc(Nc3nc(N4CCC(CN5CCN(c6ccc7c(c6)C(=O)N(C6CCC(=O)NC6=O)C7=O)CC5)CC4)ncc3Cl)ccc21` (centres unmarked) [compound 235, 5-(4-((1-(5-chloro-4-((3-(isoxazol-4-yl)-1-methyl-2-oxo-1,2-dihydroquinolin-6-yl)amino)pyrimidin-2-yl)piperidin-4-yl)methyl)piperazin-1-yl)-2-(2,6-dioxopiperidin-3-yl)isoindoline-1,3-dione] returned a 50% effective concentration (EC50) at BCL6 [1] of more than 100 nM. This compound also came in with a concentration for half-maximal inhibition (IC50) against BCL6 [2] not below 100 nM.

With `CNC(=O)COc1cc2cc(Nc3nc(N4CCC5(CCN(CC6CCN(c7ccc8c(c7)C(=O)N(C7CCC(=O)NC7=O)C8=O)CC6)CC5)CC4)ncc3Cl)ccc2n(C(C)C)c1=O` (centres unmarked) [compound 496, 2-{[6-({5-chloro-2-[9-({1-[2-(2,6-dioxopiperidin-3-yl)-1,3-dioxo-2,3-dihydro-1H-isoindol-5-yl]piperidin-4-yl}methyl)-3,9-diazaspiro[5.5]undecan-3-yl]pyrimidin-4-yl}amino)-2-oxo-1-(propan-2-yl)-1,2-dihydroquinolin-3-yl]oxy}-N-methylacetamide], on BCL6 [1] (read-out: IC50), the 50% inhibitory concentration (IC50) was less than 10 nM. This compound also displayed a Dmax on BCL6 [2] of 50 to 70%.

As for `CNC(=O)COc1cc2cc(Nc3nc(N4CCN(CC5CC6(C5)CN(c5cccc7c5C(=O)N(C5CCC(=O)NC5=O)C7=O)C6)CC4)ncc3Cl)ccc2n(C(C)C)c1=O` (centres unmarked) [compound 529, 2-{[6-({5-chloro-2-[4-({2-[2-(2,6-dioxopiperidin-3-yl)-1,3-dioxo-2,3-dihydro-1H-isoindol-4-yl]-2-azaspiro[3.3]heptan-6-yl}methyl)piperazin-1-yl]pyrimidin-4-yl}amino)-2-oxo-1-(propan-2-yl)-1,2-dihydroquinolin-3-yl]oxy}-N-methylacetamide], on BCL6 [1] (read-out: IC50), the IC50 was less than 10 nM. The compound also returned a maximal degradation (Dmax) on BCL6 [2] of 50 to 70%.

The compound `CNC(=O)COc1cc2cc(Nc3nc(N4CCN(CCN5CCN(c6ccc7c(c6)C(=O)N(C6CCC(=O)NC6=O)C7=O)CC5)CC4)ncc3Cl)ccc2n(C)c1=O` (centres unmarked) [compound 229, 2-((6-((5-chloro-2-(4-(2-(4-(2-(2,6-dioxopiperidin-3-yl)-1,3-dioxoisoindolin-5-yl)piperazin-1-yl)ethyl)piperazin-1-yl)pyrimidin-4-yl)amino)-1-methyl-2-oxo-1,2-dihydroquinolin-3-yl)oxy)-N-methylacetamide] yielded an EC50 at BCL6 [1] of 10 to 50 nM. On BCL6 [2], the IC50 fell in the range of 10 to 50 nM and the greatest degradation seen (Dmax) was 50 to 70%.

`CNC(=O)COc1cc2cc(Nc3nc(N4CCN(CC5CCN(c6ccc(F)c(C(=O)NC7CCC(=O)NC7=O)c6)CC5)CC4)ncc3Cl)ccc2n(C)c1=O` (centres unmarked) [compound 277, 5-[4-({4-[5-chloro-4-({1-methyl-3-[(methylcarbamoyl)methoxy]-2-oxo-1,2-dihydroquinolin-6-yl}amino)pyrimidin-2-yl]piperazin-1-yl}methyl)piperidin-1-yl]-N-(2,6-dioxopiperidin-3-yl)-2-fluorobenzamide]: the EC50 at BCL6 [1] is less than 10 nM. On BCL6 [2], this compound showed an IC50 of 10 to 50 nM and a Dmax of less than 50%.

`CNC(=O)COc1cc2cc(Nc3nc(N4CCC(O[C@H]5C[C@@H](Oc6cccc7c6C(=O)N(C6CCC(=O)NC6=O)C7=O)CN(C)C5)CC4)ncc3Cl)ccc2n(C(C)C)c1=O` (stereo partly drawn) [compound 477, 2-[(6-{[5-chloro-2-(4-{[(3S,5R)-5-{[2-(2,6-dioxopiperidin-3-yl)-1,3-dioxo-2,3-dihydro-1H-isoindol-4-yl]oxy}-1-methylpiperidin-3-yl]oxy}piperidin-1-yl)pyrimidin-4-yl]amino}-2-oxo-1-(propan-2-yl)-1,2-dihydroquinolin-3-yl)oxy]-N-methylacetamide]: the IC50 at BCL6 [1] (read-out: IC50) fell in the range of 10 to 50 nM. The same compound displayed a Dmax at BCL6 [2] of less than 50%.

Consider `CNC(=O)[C@@H](C)Oc1cc2cc(Nc3nc(N4CCC(CN5CCN(c6ccc7c(c6)C(=O)N([C@H]6CCC(=O)NC6=O)C7=O)CC5)CC4)ncc3Cl)ccc2n(C)c1=O` [compound 210, (R)-2-((6-((5-chloro-2-(4-((4-(2-((S)-2,6-dioxopiperidin-3-yl)-1,3-dioxoisoindolin-5-yl)piperazin-1-yl)methyl)piperidin-1-yl)pyrimidin-4-yl)amino)-1-methyl-2-oxo-1,2-dihydroquinolin-3-yl)oxy)-N-methylpropanamide], for which the concentration for a half-maximal effect (EC50) at BCL6 [1] was 10 to 50 nM. For the same compound, the concentration for half-maximal inhibition (IC50) at BCL6 [2] is not below 100 nM.

For the compound `CNC(=O)COc1cc2cc(Nc3nc(N4CCC(C5(N6CCC(c7ccc8c(c7)C(=O)N(C7CCC(=O)NC7=O)C8=O)CC6)CC5)CC4)ncc3Cl)ccc2n(C(C)C)c1=O` (centres unmarked) [compound 488, 2-{[6-({5-chloro-2-[4-(1-{4-[2-(2,6-dioxopiperidin-3-yl)-1,3-dioxo-2,3-dihydro-1H-isoindol-5-yl]piperidin-1-yl}cyclopropyl)piperidin-1-yl]pyrimidin-4-yl}amino)-2-oxo-1-(propan-2-yl)-1,2-dihydroquinolin-3-yl]oxy}-N-methylacetamide], the half-inhibitory concentration (IC50) at BCL6 [1] (read-out: IC50) is less than 10 nM. The Dmax on BCL6 [2] is 50 to 70%.

As to `CNC(=O)COc1cc2cc(Nc3nc(N4CCN(CC5CCN(c6cccc7c6C(=O)N(C6CCC(=O)NC6=O)C7=O)CC5)CC4)ncc3Cl)ccc2n(CCC2COC2)c1=O` (centres unmarked) [compound 503, 2-{[6-({5-chloro-2-[4-({1-[2-(2,6-dioxopiperidin-3-yl)-1,3-dioxo-2,3-dihydro-1H-isoindol-4-yl]piperidin-4-yl}methyl)piperazin-1-yl]pyrimidin-4-yl}amino)-1-[2-(oxetan-3-yl)ethyl]-2-oxo-1,2-dihydroquinolin-3-yl]oxy}-N-methylacetamide], the IC50 on BCL6 [1] (read-out: IC50) was less than 10 nM. Further, the maximal degradation (Dmax) on BCL6 [2] was not below 70%.
